Our source for the IC50 values is patent US8859535B2, “Hydroxy substituted isoquinolinone derivatives” (Novartis AG, priority 2011, dated 2014).

As usually defined, the IC50 is the concentration needed to halve the response being measured.

Assay [1] deals with T1, human MDM2 protein (amino acids 2-188) (Homo sapiens, UniProt Q00987).
T1 construct: human MDM2 protein (amino acids 2-188); made in house
Kind of assay: p53-MDM2 TR-FRET assay (p53-MDM2 Assay 1). It is filed as binding. To be noted: 1.25 nM MDM2-biotinylated, 10 nM Cy5-p53 peptide; read-out: IC50 (μM) of p53-Hdm2 inhibition (TR-FRET) Assay 1. As to the method: (§1) Time Resolved Fluorescence Energy Transfer (TR-FRET) Assay
(§2) The inhibition of p53-MDM2 and p53-MDM4 interactions is measured by time resolved fluorescence energy transfer (TR-FRET). Fluorescence energy transfer (or Foerster resonance energy transfer) describes an energy transfer between donor and acceptor fluorescent molecules. For this assay, human MDM2 protein (amino acids 2-188) and human MDM4 protein (amino acids 2-185), tagged with a C-terminal biotin moiety, are used in combination with a Europium labeled streptavidin (Perkin Elmer, Inc., Waltham, Mass., USA) serving as the donor fluorophore. The p53 derived, Cy5 labeled peptide Cy5-TFSDLWKLL (p53 aa18-26) is the energy acceptor. Upon excitation of the donor molecule at 340 nm, binding interaction between MDM2 or MDM4 and the p53 peptide induces energy transfer and enhanced response at the acceptor emission wavelength at 665 nm. Disruption of the formation of the p53-MDM2 or p53-MDM4 complex due to an inhibitor molecule binding to the p53 binding site of MDM2 or MDM4 results in increased donor emission at 620 nm. The ratiometric FRET assay readout is calculated from the raw data of the two distinct fluorescence signals measured in time resolved mode (fluorescence 665 nm/fluorescence 620 nm×1000).
(§3) After addition of 1.25 nM MDM2-biotinylated or 2.5 nM MDM4-biotinylated (internal preparations), and 0.625 nM Europium labeled streptavidin (Perkin Elmer), the solution is pre-incubated for 15 minutes at room temperature, then 10 nM Cy5-p53 peptide (internal preparation) is added before an incubation at room temperature for 15 minutes prior to reading the plate. For measurement of samples, a Victor II microplate reader (Perkin Elmer) is used with the following settings: Excitation 340 nm, Emission Donor 620 nm and Emission Acceptor 665 nm. IC50 values are calculated by curve fitting using XLfit. If not specified, reagents are purchased from Sigma-Aldrich Chemie GmBH, Buchs, Switzerland.
(§4) This assay was used to evaluate compounds displaying inhibition of p53-MDM2 interaction and p53-MDM4 interaction at IC50s of 0.005 to 50 μM (p53-MDM2 Assay 1 and p53-MDM4 Assay 1, respectively). For selected compounds displaying IC50s between […] on MDM2, a slightly modified assay is used with the following adaptations: 0.1 nM MDM2, 0.1 nM Europium labeled streptavidin and Tecan genios Pro is used as a microplate reader for the fluorescence measurements (p53-MDM2 Assay 2).

Assay [2] addresses T2, human MDM4 protein (amino acids 2-185) (Homo sapiens, UniProt O15151).
T2 construct: human MDM4 protein (amino acids 2-185); made in house
T2 sequence (O15151 2-185): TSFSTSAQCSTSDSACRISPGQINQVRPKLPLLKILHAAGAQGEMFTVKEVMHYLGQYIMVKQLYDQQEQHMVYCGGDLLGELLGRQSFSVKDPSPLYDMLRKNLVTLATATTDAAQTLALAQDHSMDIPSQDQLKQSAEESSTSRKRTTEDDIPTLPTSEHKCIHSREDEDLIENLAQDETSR
Kind of assay: p53-MDM4 TR-FRET assay (p53-MDM4 Assay 1). It counts as binding. To be noted: 2.5 nM MDM4-biotinylated, 10 nM Cy5-p53 peptide; read-out: IC50 (μM) of p53-Hdm4 inhibition (TR-FRET) Assay 1. As to the method:
as §1, §2, §3, §4

T1 sequence (Q00987 2-188): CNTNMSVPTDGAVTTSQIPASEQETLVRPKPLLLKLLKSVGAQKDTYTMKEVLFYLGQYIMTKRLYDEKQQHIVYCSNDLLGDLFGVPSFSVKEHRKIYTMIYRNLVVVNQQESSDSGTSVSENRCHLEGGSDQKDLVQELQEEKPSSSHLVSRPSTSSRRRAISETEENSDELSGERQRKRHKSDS

For the compound `COc1cc2c(cc1OC(C)C)[C@H](c1ccc(Cl)cc1)N(c1ccc(C(C)(O)c3cccnc3)cn1)C(=O)C2` (stereo partly drawn) [Example 15, (S)-1-(4-Chloro-phenyl)-2-[5-(1-hydroxy-1-pyridin-3-yl-ethyl)-pyridin-2-yl]-7-isopropoxy-6-methoxy-1,4-dihydro-2H-isoquinolin-3-one], the IC50 in assay [1] was 0.0404 µM; in assay [2], 61.1 µM.
The corresponding values for `COc1cc2c(cc1OC(C)C)[C@H](c1ccc(Cl)cc1)N(c1ccc(C(C)(O)c3cccnc3)cc1)C(=O)C2` (stereo partly drawn) [Example 16, (S)-1-(4-Chloro-phenyl)-2-[4-(1-hydroxy-1-pyridin-3-yl-ethyl)-phenyl]-7-isopropoxy-6-methoxy-1,4-dihydro-2H-isoquinolin-3-one] are 0.0058 µM and 8.42 µM.
The corresponding values for `COc1cc2c(cc1OC(C)C)[C@H](c1ccc(Cl)cc1)N(c1ccc(C(C)(O)c3ccncc3)cc1)C(=O)C2` (stereo partly drawn) [Example 17, (S)-1-(4-Chloro-phenyl)-2-[4-(1-hydroxy-1-pyridin-4-yl-ethyl)-phenyl]-7-isopropoxy-6-methoxy-1,4-dihydro-2H-isoquinolin-3-one] are 0.0068 µM and 7.73 µM.
As for `COc1cc2c(cc1OC(C)C)[C@H](c1ccc(Cl)cc1)N(c1ccc(C(C)(O)c3ccccn3)cc1)C(=O)C2` (stereo partly drawn) [Example 18, (S)-1-(4-Chloro-phenyl)-2-[4-(1-hydroxy-1-pyridin-2-yl-ethyl)-phenyl]-7-isopropoxy-6-methoxy-1,4-dihydro-2H-isoquinolin-3-one], the IC50 in assay [1] amounted to 0.0368 µM; in assay [2] it was 37.2 µM.
For `COc1cc2c(cc1OC(C)C)[C@H](c1ccc(Cl)cc1)N(c1ccc(C(C)(O)c3ccc(F)c(F)c3)cc1)C(=O)C2` (stereo partly drawn) [Example 19, (S)-1-(4-Chloro-phenyl)-2-{4-[1-(3,4-difluoro-phenyl)-1-hydroxy-ethyl]-phenyl}-7-isopropoxy-6-methoxy-1,4-dihydro-2H-isoquinolin-3-one] the same measures were 0.0446 µM and 87.2 µM.
For `COc1cc(OC)cc(C(C)(O)c2ccc(N3C(=O)Cc4cc(OC)c(OC(C)C)cc4[C@@H]3c3ccc(Cl)cc3)cc2)c1` (stereo partly drawn) [Example 22, (S)-1-(4-Chloro-phenyl)-2-{4-[1-(3,5-dimethoxy-phenyl)-1-hydroxy-ethyl]-phenyl}-7-isopropoxy-6-methoxy-1,4-dihydro-2H-isoquinolin-3-one] the same measures were 0.0225 µM and 21.7 µM.
The corresponding values for `COc1ccc(C(C)(O)c2ccc(N3C(=O)Cc4cc(OC)c(OC(C)C)cc4[C@@H]3c3ccc(Cl)cc3)cc2)cn1` (stereo partly drawn) [Example 23, (S)-1-(4-Chloro-phenyl)-2-{4-[1-hydroxy-1-(6-methoxy-pyridin-3-yl)-ethyl]-phenyl}-7-isopropoxy-6-methoxy-1,4-dihydro-2H-isoquinolin-3-one] are 0.0159 µM and 24.7 µM.
In the case of `COc1cc2c(cc1OC(C)C)[C@H](c1ccc(Cl)cc1)N(c1ccc(C(C)(O)c3ccc(NC(C)=O)cc3)nc1)C(=O)C2` (stereo partly drawn) [Example 24, N-[4-(1-{5-[(S)-1-(4-Chloro-phenyl)-7-isopropoxy-6-methoxy-3-oxo-3,4-dihydro-1H-isoquinolin-2-yl]-pyridin-2-yl}-1-hydroxy-ethyl)-phenyl]-acetamide], the 50% inhibitory concentration (IC50) in assay [1] was 0.0544 µM; in assay [2], 61.3 µM.
The corresponding values for `COc1cc2c(cc1OC(C)C)[C@H](c1ccc(Cl)cc1)N(c1ccc(C(C)(O)c3ccc(NC(C)=O)cc3)cn1)C(=O)C2` (stereo partly drawn) [Example 25, N-[4-(1-{6-[(S)-1-(4-Chloro-phenyl)-7-isopropoxy-6-methoxy-3-oxo-3,4-dihydro-1H-isoquinolin-2-yl]-pyridin-3-yl}-1-hydroxy-ethyl)-phenyl]-acetamide] are 0.0112 µM and 19.5 µM.
The corresponding values for `COc1cc2c(cc1OC(C)C)[C@H](c1ccc(Cl)cc1)N(c1ccc([C@@](C)(O)c3ccc(NC(C)=O)cc3)cc1)C(=O)C2` [Example 26, N-[4-((S)-1-{4-[(S)-1-(4-Chloro-phenyl)-7-isopropoxy-6-methoxy-3-oxo-3,4-dihydro-1H-isoquinolin-2-yl]-phenyl}-1-hydroxy-ethyl)-phenyl]-acetamide] are 0.0043 µM and 8.25 µM.
Consider `COc1cc2c(cc1OC(C)C)[C@H](c1ccc(Cl)cc1)N(c1ccc([C@](C)(O)c3ccc(NC(C)=O)cc3)cc1)C(=O)C2` [Example 27, N-[4-((R)-1-{4-[(S)-1-(4-Chloro-phenyl)-7-isopropoxy-6-methoxy-3-oxo-3,4-dihydro-1H-isoquinolin-2-yl]-phenyl}-1-hydroxy-ethyl)-phenyl]-acetamide], for which the IC50 is 0.0458 µM in assay [1] and 36.3 µM in assay [2].
Regarding `COc1cc2c(cc1OC(C)C)[C@H](c1ccc(Cl)cc1)N(c1ccc(C(C)(O)c3ccc(NC(C)=O)cc3)c(F)c1)C(=O)C2` (stereo partly drawn) [Example 28, N-[4-(1-{4-[(S)-1-(4-Chloro-phenyl)-7-isopropoxy-6-methoxy-3-oxo-3,4-dihydro-1H-isoquinolin-2-yl]-2-fluoro-phenyl}-1-hydroxy-ethyl)-phenyl]-acetamide], the IC50 in assay [1] was determined as 0.0066 µM; in assay [2] it was 9.7 µM.
For `COc1cc2c(cc1OC(C)C)[C@H](c1ccc(Cl)cc1)N(c1ccc(C(C)(O)CNC(C)=O)cc1)C(=O)C2` (stereo partly drawn) [Example 29, N-(2-{4-[(S)-1-(4-Chloro-phenyl)-7-isopropoxy-6-methoxy-3-oxo-3,4-dihydro-1H-isoquinolin-2-yl]-phenyl}-2-hydroxy-propyl)-acetamide] the same measures were 0.143 µM and 39.7 µM.
For `COc1cc2c(cc1OC(C)C)[C@H](c1ccc(Cl)cc1)N(c1ccc(C(C)(O)C3CCN(C(C)=O)CC3)cc1)C(=O)C2` (stereo partly drawn) [Example 31, (S)-2-{4-[1-(1-Acetyl-piperidin-4-yl)-1-hydroxy-ethyl]-phenyl}-1-(4-chloro-phenyl)-7-isopropoxy-6-methoxy-1,4-dihydro-2H-isoquinolin-3-one] the same measures were 0.0023 µM and 2.31 µM.
The corresponding values for `COc1cc2c(cc1OC(C)C)[C@H](c1ccc(Cl)cc1)N(c1ccc(C(C)(O)C3CCOCC3)cc1OC)C(=O)C2` (stereo partly drawn) [Example 36, (S)-1-(4-Chloro-phenyl)-2-{4-[1-hydroxy-1-(tetrahydro-pyran-4-yl)-ethyl]-2-methoxy-phenyl}-7-isopropoxy-6-methoxy-1,4-dihydro-2H-isoquinolin-3-one] are 0.0051 µM and 6.03 µM.
In the case of `COc1cc2c(cc1OC(C)C)[C@H](c1ccc(Cl)cc1)N(c1ccc(C(C)(O)C3CCOCC3)cn1)C(=O)C2` (stereo partly drawn) [Example 37, (S)-1-(4-Chloro-phenyl)-2-{5-[1-hydroxy-1-(tetrahydro-pyran-4-yl)-ethyl]-pyridin-2-yl}-7-isopropoxy-6-methoxy-1,4-dihydro-2H-isoquinolin-3-one], the values for the IC50 in assay [1] and in assay [2] were 0.0117 µM and 13.8 µM, respectively.
`COc1cc2c(cc1OC(C)C)[C@H](c1ccc(Cl)cc1)N(c1ccc(C(O)C3CCOCC3)cc1)C(=O)C2` (stereo partly drawn) [Example 40, (S)-1-(4-Chloro-phenyl)-2-{4-[hydroxy-(tetrahydro-pyran-4-yl)-methyl]-phenyl}-7-isopropoxy-6-methoxy-1,4-dihydro-2H-isoquinolin-3-one]: the half-inhibitory concentration (IC50) is 0.0328 µM in assay [1] and 31.6 µM in assay [2].
Regarding `COc1cc2c(cc1OC(C)C)[C@H](c1ccc(Cl)cc1)N(c1ccc(C(C)(O)C3CCN(C(=O)OC(C)(C)C)CC3)cc1)C(=O)C2` (stereo partly drawn) [Example 42, 4-(1-{4-[(S)-1-(4-Chloro-phenyl)-7-isopropoxy-6-methoxy-3-oxo-3,4-dihydro-1H-isoquinolin-2-yl]-phenyl}-1-hydroxy-ethyl)-piperidine-1-carboxylic acid tert-butyl ester], the concentration for half-maximal inhibition (IC50) came to 0.0091 µM in assay [1] and 14.9 µM in assay [2].
